Test results from patent publication US4170640A, “Antibiotic mixtures” (priority 1977, dated 1979).

Columns and labels:
[1] = tested on: E. coli B; test: Amplification of the antibacterial (cell-killing) activity of phleomycin in stationary phase cultures, viable cell counts; format: cell-based; details: concentration of optimum activity after phleomycin pretreatment (2 μg/ml, 30 min, 37°); 120 min treatment
Description: The ability of the compounds to potentiate the cell-killing effects of phleomycin was measured by the following procedure. Stationary phase cultures of E. coli B, with or without the compounds under test, were resuspended in growth medium containing phleomycin (2 μg/ml) and incubated at 37° for 30 minutes. The cells were then membrane filtered (0.45 μm pore size; 2.5 cms), washed with growth medium (20 μg/ml) and resuspended in growth medium (20 μg/ml) at 37° C. containing various concentrations, between 10^-10 M and 10^-2 M, of the compound under test. As a control, bacteria were exposed to the same range of concentrations of each compound but without the phleomycin pretreatment. To determine viable cell numbers aliquots were taken from each cell suspension after 120 minutes treatments, plated on agar medium and incubated overnight at 37° C. All operations with amplifying agents were carried out in near dark conditions.
Compounds were designated as active when the increase in activity with the combined treatment was greater than could be explained by the effects of the two compounds when administered separately.

[2] = tested on: E. coli B; test: as above; format: cell-based; details: envisaged from present studies; phleomycin at about 1 mg/l (or mg/kg)
[3] = tested on: Walker rat carcinoma 256; test: Survival of rats bearing Walker rat carcinoma 256 ascites tumour, treated with phleomycin plus amplifier; format: in vivo, Sprague Dawley rats; details: for amplification of the activity of phleomycin (survival of tumour-bearing rats): doses as in Table 2
Description: Walker rat carcinoma 256 as the ascites form was passaged in female Sprague Dawley rats. […] Intraperitoneal injections of 0.1 ml (10^6 viable cells) of the suspension were then made into test groups of 6-8 male Sprague Dawley rats.
Phleomycin dissolved in phosphate-buffered saline was given to animals in the test groups as 0.1 ml intraperitoneal injections twice daily; each injection was followed by a 0.1 ml intraperitoneal injection of the prospective amplifier. The treatments were given for 5-10 days, at varying concentrations of the phleomycin and amplifier.
The method of evaluating the effectiveness of the various treatments was based on those used in the screening programme of the Drug Evaluation Branch, National Cancer Institute, National Institute of Health, Bethesda, Maryland, U.S.A. (Cancer Chemotherapy Reports, Vol. 3, No. 2, September 1972). Thus the effectiveness of the drug treatment was measured by the increased survival time, measured in days, of the treated animals over control ones which received no drugs. Dead animals were counted daily, and median survival times (MST) calculated for all groups. […] The ratios (test group median survival time) divided by (control group median survival time)× 100 (T/C) were calculated for all the test groups.

[4] = 4,4'-bis(trimethylammonio)diphenylmethane dichloride 270 MKD alone (phleomycin 0), ×2 daily
[5] = phleomycin 4 MKD + 4,4'-bis(trimethylammonio)diphenylmethane dichloride 270 MKD, i.p. ×2 daily
[6] = Auramin 0 7.6 MKD alone (phleomycin 0), ×2 daily
[7] = phleomycin 8 MKD + Auramin 0 7.6 MKD, i.p. ×2 daily
[8] = Brilliant Green 640 MKD alone (phleomycin 0), ×2 daily
[9] = phleomycin 5 MKD + Brilliant Green 640 MKD, i.p. ×2 daily
[10] = phleomycin 10 MKD + Brilliant Green 640 MKD, i.p. ×2 daily
[11] = phleomycin 20 MKD + Brilliant Green 640 MKD, i.p. ×2 daily
[12] = Crystal Violet 0.5 MKD alone (phleomycin 0), twice daily from days 2 to 10
[13] = phleomycin 4 MKD + Crystal Violet 0.5 MKD, i.p. twice daily from days 2 to 10
[14] = Malachite Green 52 MKD alone (phleomycin 0), ×2 daily
[15] = phleomycin 8 MKD + Malachite Green 52 MKD, i.p. ×2 daily
[16] = Neutral Red 20 MKD alone (phleomycin 0), ×2 daily
[17] = phleomycin 8 MKD + Neutral Red 20 MKD, i.p. ×2 daily
[18] = phleomycin 16 MKD + Neutral Red 20 MKD, i.p. ×2 daily
[19] = phleomycin 32 MKD + Neutral Red 20 MKD, i.p. ×2 daily

With `C[N+](C)(C)c1ccc2cc3ccc([N+](C)(C)C)cc3c(-c3c4cc([N+](C)(C)C)ccc4cc4ccc([N+](C)(C)C)cc34)c2c1.[Cl-].[Cl-].[Cl-].[Cl-]` [2,2', 7,7'-tetrakis(trimethylammonio)-9,9'-dianthracene tetrachloride] the “Optimum Concentration tested” value [1] was 50 µM.
`Nc1cc2nc3ccccc3oc-2cc1=O` [2-aminophenoxazone] was tested, and the “Optimum Concentration tested” value [1] was 25 µM.
In the case of `CC[n+]1c(C=Cc2ccc(N(C)C)cc2)ccc2ccccc21.[Cl-]` [2-p-dimethylaminostyryl-N-ethyl-quinolinium chloride], the “Optimum Concentration tested” value [1] is reported as 0.3 µM.
With `C[N+](C)(C)c1ccc(-c2ccc([N+](C)(C)C)cc2)cc1.[Cl-].[Cl-]` [4,4'-bis(trimethylammonio)diphenyl-dichloride] the “Optimum Concentration tested” value [1] was 310 µM.
With `C[N+](C)(C)c1ccc(Cc2ccc([N+](C)(C)C)cc2)cc1` [4,4'-bis(trimethylammonio)diphenylmethane] the “adequate concentration of amplifier in conjunction with phleomycin” value (“adequate concentration of amplifier” below) [2] was 10^-3 molar, the MST [3, 4] was 8.0 days and the T/C [3, 4] was 100. For the same compound, the “amplification of the activity of phleomycin (survival of tumour-bearing rats)” value (“amplification” for short) [3] was “amplified the activity of phleomycin”, the MST [3, 5] was 10.0 days and the T/C [3, 5] was 125. The “Optimum Concentration tested” value [1] was 29 µM.
`CN(C)c1ccc(C(=N)c2ccc(N(C)C)cc2)cc1.Cl` [Auramin O] was tested, and the MST [3, 6] was 9.5 days, the T/C [3, 6] was 95 and the “amplification” value [3] was “amplified the activity of phleomycin”. The MST [3, 7] was 18 days, the T/C [3, 7] was greater than 180 and the “Optimum Concentration tested” value [1] was 3.3 µM.
`CCN(CC)c1ccc(C(=C2C=CC(=[N+](CC)CC)C=C2)c2ccccc2)cc1.O=S(=O)([O-])O` [Brilliant Green] was tested, and the MST [3, 8] was 9 days, the T/C [3, 8] was 112 and the “amplification” value [3] was “amplified the activity of phleomycin”. It also gave an MST [3, 9] of 10 days, a T/C [3, 9] of 125 and an MST [3, 10] of 11 days. It also gave a T/C [3, 10] of 138, an MST [3, 11] of 11 days and a T/C [3, 11] of 138. The “Optimum Concentration tested” value [1] was 9.6 µM.
With `CN(C)c1ccc(C(=C2C=CC(=[N+](C)C)C=C2)c2ccc(N(C)C)cc2)cc1` [Crystal Violet] the “adequate concentration of amplifier” value [2] was 10^-7 molar, the MST [3, 12] was 12.5 days and the T/C [3, 12] was 104. For the same compound, the “amplification” value [3] was “amplified the activity of phleomycin”, the MST [3, 13] was greater than 30 days and the T/C [3, 13] was 250. For the same compound, the “Optimum Concentration tested” value [1] was 2.4 µM.
For `CC[n+]1c(-c2ccccc2)c2cc(N)ccc2c2ccc(N)cc21.[Br-]` [Ethidium bromide], the “adequate concentration of amplifier” value [2] was 10^-4 molar and the “Optimum Concentration tested” value [1] was 13 µM.
In the case of `CN(C)c1ccc(C(=C2C=CC(=[N+](C)C)C=C2)c2ccccc2)cc1.[Cl-]` [Malachite green], the MST [3, 14] is reported as 8 days, the T/C [3, 14] is reported as 100 and the “amplification” value [3] is reported as “amplified the activity of phleomycin”. The MST [3, 15] was 16.5 days, the T/C [3, 15] was 206 and the “Optimum Concentration tested” value [1] was 3 µM.
In the case of `CN(C)c1ccc2nc3ccc(=[N+](C)C)cc-3sc2c1.[Cl-]` [Methylene Blue], the “Optimum Concentration tested” value [1] is reported as 13 µM.
In the case of `Cc1cc2nc3ccc(N(C)C)cc3nc2cc1N.Cl` [Neutral Red], the “enhancement of the ability of phleomycin to prolong the survival of rats carrying tumours” value ([3]; Neutral Red 20 μg/kg/day with phleomycin at 8, 16 or 32 micrograms/kg/day) is reported as “active”, the MST [3, 16] is reported as 11.0 days and the T/C [3, 16] is reported as 79. For the same compound, the MST [3, 17] was 20 days, the T/C [3, 17] was 143 and the MST [3, 18] was greater than 30 days. For the same compound, the T/C [3, 18] was greater than 214, the MST [3, 19] was greater than 30 days and the T/C [3, 19] was greater than 214. For the same compound, the “Optimum Concentration tested” value [1] was 33 µM.
With `CC[N+](CC)=c1ccc2nc3c(cc(N)c4ccccc43)oc-2c1` [Nile Blue] the “Optimum Concentration tested” value [1] was 2.7 µM.
In the case of `CN(C)c1ccc2cc3ccc(=[N+](C)C)cc-3oc2c1.[Cl-]` [Pyronin Y], the “Optimum Concentration tested” value [1] is reported as 170 µM.
In the case of `CCN(CC)CCCC(C)Nc1c2ccc(Cl)cc2nc2ccc(OC)cc12` (stereo not shown) [Quinacrine], the “Optimum Concentration tested” value [1] is reported as 39 µM.
In the case of `CCNc1ccc2c(-c3ccccc3C(=O)O)c3ccc(=[N+](CC)CC)cc-3oc2c1.[Cl-]` [Rhodamine G], the “Optimum Concentration tested” value [1] is reported as 120 µM.
With `Cc1cc2nc3cc(C)c(N)cc3[n+](-c3ccccc3)c2cc1N.[Cl-]` [Safranin T] the “Optimum Concentration tested” value [1] was 14 µM.
For `Cc1cc2nc3ccc(N(C)C)cc3[s+]c2cc1N.[Cl-]` [Toluidine Blue], the “Optimum Concentration tested” value [1] was 16 µM.
For Brilliant Cresol Blue, the “Optimum Concentration tested” value [1] was 340 µM.
For Methyl Violet, the “Optimum Concentration tested” value [1] was 1.6 µM.
